The results in this text go back to the supplement of paper PMC10307832.

Common to all, as to experiment: relative viability (nuclei count vs DMSO), 5 days (fraction); higher = more cells survive
Compound in the assay “TGX 221 + Vorinostat”: CC1=CN2C(=O)C=C(N=C2C(=C1)C(C)NC3=CC=CC=C3)N4CCOCC4 [TGX 221] + O=C(CCCCCCC(=O)Nc1ccccc1)NO [Vorinostat] (partner 1 µM)
The procedure, abridged: (§1)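 Medians of duplicate plates are given as relative viability. That measure is the nuclei count in treated wells divided by the count in vehicle wells. Counts were taken on 4× images of lung cancer cell lines in 1536-well plates, 5 days after pin-tool dosing the day after seeding with one drug alone or a fixed anchor-drug dose plus five library-drug doses (not always all listed) in √10 steps.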

Compound in assay [1]: C1=CC=C(C(=C1)C2=CC=C(C=C2)C3=CSC4=C3C(=C(C(=O)N4)C#N)O)O + CS(=O)(=O)CCNCc1ccc(-c2ccc3ncnc(Nc4ccc(OCc5cccc(F)c5)c(Cl)c4)c3c2)o1 [Lapatinib] (partner 2 µM)
The procedure, abridged: as §1

Compound in assay [2]: C1=CC=C(C(=C1)C2=CC=C(C=C2)C3=CSC4=C3C(=C(C(=O)N4)C#N)O)O + CC1(C)CCC(c2ccc(Cl)cc2)=C(CN2CCN(c3ccc(C(=O)NS(=O)(=O)c4ccc(N[C@H](CCN5CCOCC5)CSc5ccccc5)c(S(=O)(=O)C(F)(F)F)c4)cc3)CC2)C1 [Navitoclax] (partner 0.5 µM)
The procedure, abridged: as §1

Compound in the assay “Ricolinostat + Dasatinib”: O=C(CCCCCCNC(=O)c1cnc(N(c2ccccc2)c2ccccc2)nc1)NO [Ricolinostat] + Cc1nc(Nc2ncc(C(=O)Nc3c(C)cccc3Cl)s2)cc(N2CCN(CCO)CC2)n1 [Dasatinib] (partner 0.075 µM)
The procedure, abridged:
as §1

For NCI-H1648, the relative viability came out at 0.295 in the assay with TGX 221 + Vorinostat (first compound 0.253 µM), 0.651 with TGX 221 + Vorinostat (first compound 0.8 µM), 0.395 with TGX 221 + Vorinostat (first compound 2.53 µM) and 0.421 with TGX 221 + Vorinostat (first compound 8 µM).
Take NCI-H1755: the relative viability in assay [1] (first compound 0.08 µM) was 0.938; in assay [1] (first compound 0.253 µM) it was 1.11; in assay [1] (first compound 0.8 µM), 0.875; in assay [1] (first compound 2.53 µM) it was 1.11; in assay [1] (first compound 8 µM), 1.1; with TGX 221 + Vorinostat (first compound 0.08 µM), 0.677. Besides, the relative viability with TGX 221 + Vorinostat (first compound 0.253 µM) amounted to 0.681; with TGX 221 + Vorinostat (first compound 0.8 µM), 0.775; with TGX 221 + Vorinostat (first compound 2.53 µM), 0.718; in the assay with TGX 221 + Vorinostat (first compound 8 µM), 0.667; in assay [2] (first compound 0.08 µM) it was 1.03; in assay [2] (first compound 0.253 µM) it was 1.13. Also, the relative viability was 0.98 in assay [2] (first compound 0.8 µM); 1.08 in assay [2] (first compound 2.53 µM); 0.78 in assay [2] (first compound 8 µM); 0.368 with Ricolinostat + Dasatinib (first compound 0.08 µM); 0.386 with Ricolinostat + Dasatinib (first compound 0.253 µM); 0.472 with Ricolinostat + Dasatinib (first compound 0.8 µM). Also, in the assay with Ricolinostat + Dasatinib (first compound 2.53 µM), the relative viability is 0.449.
In the case of PC-3 [JPC-3], the relative viability in assay [1] (first compound 0.08 µM) amounted to 0.488; in assay [1] (first compound 0.253 µM), 0.556; in assay [1] (first compound 0.8 µM), 0.479; in assay [1] (first compound 2.53 µM) it was 0.441; in assay [1] (first compound 8 µM), 0.472; in the assay with TGX 221 + Vorinostat (first compound 0.08 µM) it was 0.719. In addition, the relative viability in the assay with TGX 221 + Vorinostat (first compound 0.253 µM) stood at 0.715; in the assay with TGX 221 + Vorinostat (first compound 0.8 µM), 0.839; in the assay with TGX 221 + Vorinostat (first compound 2.53 µM), 0.655; in the assay with TGX 221 + Vorinostat (first compound 8 µM), 0.881; in assay [2] (first compound 0.08 µM), 0.913; in assay [2] (first compound 0.253 µM), 0.816. Besides, the relative viability in assay [2] (first compound 0.8 µM) was determined as 0.849; in assay [2] (first compound 2.53 µM) it was 0.765; in assay [2] (first compound 8 µM), 0.808; in the assay with Ricolinostat + Dasatinib (first compound 0.253 µM), 0.905; with Ricolinostat + Dasatinib (first compound 0.8 µM), 0.993; in the assay with Ricolinostat + Dasatinib (first compound 2.53 µM), 0.903.
Turning to HCC-44, the relative viability in assay [1] (first compound 0.08 µM) is 0.863; in assay [1] (first compound 0.253 µM), 1.07; in assay [1] (first compound 0.8 µM), 0.928; in assay [1] (first compound 2.53 µM), 1.02; in assay [1] (first compound 8 µM) it was 0.993; with TGX 221 + Vorinostat (first compound 0.08 µM) it was 1.12. For the same cell line, the relative viability with TGX 221 + Vorinostat (first compound 0.253 µM) is 1.22; with TGX 221 + Vorinostat (first compound 0.8 µM), 1.17; with TGX 221 + Vorinostat (first compound 2.53 µM), 1.17; with TGX 221 + Vorinostat (first compound 8 µM) it was 1.21; in assay [2] (first compound 0.08 µM), 0.909; in assay [2] (first compound 0.253 µM) it was 1.09. Also, the relative viability in assay [2] (first compound 0.8 µM) worked out at 1; in assay [2] (first compound 2.53 µM) it was 0.938; in assay [2] (first compound 8 µM), 0.65.
CAL-12T: the relative viability came to 0.848 in assay [1] (first compound 0.253 µM); 0.604 in assay [1] (first compound 0.8 µM); 0.617 in assay [1] (first compound 2.53 µM); 0.599 in assay [1] (first compound 8 µM); 0.826 with TGX 221 + Vorinostat (first compound 0.08 µM); 0.7 with TGX 221 + Vorinostat (first compound 0.253 µM). Further, the relative viability in the assay with TGX 221 + Vorinostat (first compound 0.8 µM) amounted to 0.75; with TGX 221 + Vorinostat (first compound 2.53 µM), 0.876; with TGX 221 + Vorinostat (first compound 8 µM) it was 0.707; in assay [2] (first compound 0.253 µM), 1.23; in assay [2] (first compound 0.8 µM), 1.22; in assay [2] (first compound 2.53 µM), 1.45. Moreover, the relative viability in assay [2] (first compound 8 µM) was found to be 1.06; with Ricolinostat + Dasatinib (first compound 0.08 µM) it was 0.422; in the assay with Ricolinostat + Dasatinib (first compound 0.253 µM), 0.417; with Ricolinostat + Dasatinib (first compound 0.8 µM), 0.48; with Ricolinostat + Dasatinib (first compound 2.53 µM), 0.664.
ChaGo-K-1: the relative viability in the assay with TGX 221 + Vorinostat (first compound 0.08 µM) was 0.742; with TGX 221 + Vorinostat (first compound 0.253 µM), 0.758; with TGX 221 + Vorinostat (first compound 0.8 µM) it was 0.749; with TGX 221 + Vorinostat (first compound 2.53 µM), 0.727; with TGX 221 + Vorinostat (first compound 8 µM) it was 0.707; in assay [2] (first compound 0.08 µM) it was 0.642. Besides, the relative viability in assay [2] (first compound 0.253 µM) was 0.833; in assay [2] (first compound 0.8 µM) it was 0.909; in assay [2] (first compound 2.53 µM) it was 1; in assay [2] (first compound 8 µM), 1.37; with Ricolinostat + Dasatinib (first compound 0.08 µM) it was 0.579; in the assay with Ricolinostat + Dasatinib (first compound 0.253 µM) it was 0.49. In addition, the values for the relative viability in the assay with Ricolinostat + Dasatinib (first compound 0.8 µM) and with Ricolinostat + Dasatinib (first compound 2.53 µM) were 0.584 and 0.532, respectively.
For the cell line NCI-H2126, the relative viability in assay [1] (first compound 0.08 µM) came out at 0.737; in assay [1] (first compound 0.253 µM) it was 0.748; in assay [1] (first compound 0.8 µM), 0.728; in assay [1] (first compound 2.53 µM) it was 0.766; in assay [1] (first compound 8 µM), 0.834; with TGX 221 + Vorinostat (first compound 0.08 µM), 0.832. Further, the relative viability with TGX 221 + Vorinostat (first compound 0.253 µM) was determined as 0.741; with TGX 221 + Vorinostat (first compound 0.8 µM), 0.768; with TGX 221 + Vorinostat (first compound 2.53 µM), 0.615; in the assay with TGX 221 + Vorinostat (first compound 8 µM), 0.717; in assay [2] (first compound 0.08 µM), 0.866; in assay [2] (first compound 0.253 µM) it was 0.924. Besides, the relative viability was 0.798 in assay [2] (first compound 0.8 µM); 0.884 in assay [2] (first compound 2.53 µM); 0.951 in assay [2] (first compound 8 µM); 0.618 with Ricolinostat + Dasatinib (first compound 0.253 µM); 0.616 with Ricolinostat + Dasatinib (first compound 0.8 µM); 0.492 with Ricolinostat + Dasatinib (first compound 2.53 µM).
For HCC-827, the relative viability in assay [1] (first compound 0.08 µM) turned out to be 0.185; in assay [1] (first compound 0.253 µM), 0.201; in assay [1] (first compound 0.8 µM), 0.197; in assay [1] (first compound 2.53 µM), 0.184; in assay [1] (first compound 8 µM) it was 0.18; with TGX 221 + Vorinostat (first compound 0.08 µM), 0.777. The relative viability was found to be 0.922 with TGX 221 + Vorinostat (first compound 0.253 µM); 0.888 with TGX 221 + Vorinostat (first compound 0.8 µM); 0.891 with TGX 221 + Vorinostat (first compound 2.53 µM); 0.852 in the assay with TGX 221 + Vorinostat (first compound 8 µM); 1 in assay [2] (first compound 0.08 µM); 1.12 in assay [2] (first compound 0.253 µM). Further, the relative viability in assay [2] (first compound 0.8 µM) turned out to be 1.04; in assay [2] (first compound 2.53 µM), 1.04; in assay [2] (first compound 8 µM) it was 1.04; with Ricolinostat + Dasatinib (first compound 0.08 µM) it was 0.24; with Ricolinostat + Dasatinib (first compound 0.253 µM), 0.363; with Ricolinostat + Dasatinib (first compound 0.8 µM), 0.287. The relative viability with Ricolinostat + Dasatinib (first compound 2.53 µM) was 0.361.
